# Results reported in PubChem BioAssay AID1963963 (Molecular Pharmacology Branch, DTP, NCI, 2024).
# Tested on: 958667-338-R-J2-PDC tumor spheroids viability
# Experiment: Anticancer human tumor 958667-338-R-J2-PDC patient-derived colon adenocarcinoma cell line growth inhibition [PI3K]
# Conditions: spheroids with HUVEC and MSC; for viability, T/C: stronger effect = lower value
# Method in brief: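 Multi-cell spheroids combine tumor cells with HUVEC and human MSCs, treated with targeted agents alone or with inavolisib, alpelisib, duvelisib or copanlisib. Concentrations fall in half-log steps from at or near clinical Cmax, or from 10 microM where Cmax is unknown; viability read-out.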
# [1] = curve of first compound, second compound 0.0316 µM
# [2] = curve of first compound, second compound 0.1 µM
# [3] = curve of first compound, second compound 0.316 µM
# [4] = curve of first compound, second compound 1 µM
# [5] = curve of first compound, second compound 3.16 µM
# [6] = curve of first compound, second compound 10 µM
# [7] = second compound 0.0316 µM, first compound 0.0316 µM
# [8] = second compound 0.0316 µM, first compound 0.1 µM
# [9] = second compound 0.1 µM, first compound 0.0316 µM
# [10] = second compound 0.1 µM, first compound 0.1 µM
# [11] = second compound 0.316 µM, first compound 0.0316 µM
# [12] = second compound 0.316 µM, first compound 0.1 µM
# [13] = second compound 1 µM, first compound 0.0316 µM
# [14] = second compound 1 µM, first compound 0.1 µM
# [15] = second compound 3.16 µM, first compound 0.0316 µM
# [16] = second compound 3.16 µM, first compound 0.1 µM
# [17] = second compound 10 µM, first compound 0.0316 µM
# [18] = second compound 10 µM, first compound 0.1 µM
# 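Note: spheroids exposed to compounds for seven days before readout.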
compound,measurement,setting,value
Cn1nccc1Nc1nccc(-c2ccn(C(CO)c3ccc(Cl)c(F)c3)c(=O)c2)n1 (stereo unspecified) + CC(Nc1ncnc2nc[nH]c12)c1cc2cccc(Cl)c2c(=O)n1-c1ccccc1,IC50,[1],> 10000 nM
same,IC50,[2],> 10000 nM
same,IC50,[3],> 10000 nM
same,IC50,[4],> 10000 nM
same,IC50,[5],> 10000 nM
same,IC50,[6],8080 nM
same,"viability, T/C",[7],93.3%
same,"viability, T/C",[8],93.3%
same,"viability, T/C","second compound 0.0316 µM, first compound 0.316 µM",92.1%
same,"viability, T/C","second compound 0.0316 µM, first compound 1 µM",97.6%
same,"viability, T/C","second compound 0.0316 µM, first compound 3.16 µM",72.2%
same,"viability, T/C","second compound 0.0316 µM, first compound 10 µM",77.8%
same,"viability, T/C",[9],88%
same,"viability, T/C",[10],106%
same,"viability, T/C","second compound 0.1 µM, first compound 0.316 µM",109%
same,"viability, T/C","second compound 0.1 µM, first compound 1 µM",69.4%
same,"viability, T/C","second compound 0.1 µM, first compound 3.16 µM",73.6%
same,"viability, T/C","second compound 0.1 µM, first compound 10 µM",63.3%
same,"viability, T/C",[11],91.1%
same,"viability, T/C",[12],105%
same,"viability, T/C","second compound 0.316 µM, first compound 0.316 µM",80.6%
same,"viability, T/C","second compound 0.316 µM, first compound 1 µM",106%
same,"viability, T/C","second compound 0.316 µM, first compound 3.16 µM",76.3%
same,"viability, T/C","second compound 0.316 µM, first compound 10 µM",60.1%
same,"viability, T/C",[13],93.9%
same,"viability, T/C",[14],87%
same,"viability, T/C","second compound 1 µM, first compound 0.316 µM",82.7%
same,"viability, T/C","second compound 1 µM, first compound 1 µM",89.6%
same,"viability, T/C","second compound 1 µM, first compound 3.16 µM",83.5%
same,"viability, T/C","second compound 1 µM, first compound 10 µM",50.7%
same,"viability, T/C",[15],82.9%
same,"viability, T/C",[16],79.9%
same,"viability, T/C","second compound 3.16 µM, first compound 0.316 µM",68.3%
same,"viability, T/C","second compound 3.16 µM, first compound 1 µM",75.4%
same,"viability, T/C","second compound 3.16 µM, first compound 3.16 µM",66.8%
same,"viability, T/C","second compound 3.16 µM, first compound 10 µM",51.4%
same,"viability, T/C",[17],94%
same,"viability, T/C",[18],94.2%
same,"viability, T/C","second compound 10 µM, first compound 0.316 µM",67.3%
same,"viability, T/C","second compound 10 µM, first compound 1 µM",87.6%
same,"viability, T/C","second compound 10 µM, first compound 3.16 µM",66.3%
same,"viability, T/C","second compound 10 µM, first compound 10 µM",44.9%
CC(C)n1nc(-c2ccc3oc(N)nc3c2)c2c(N)ncnc21 + Cc1nc(NC(=O)N2CCCC2C(N)=O)sc1-c1ccnc(C(C)(C)C(F)(F)F)c1,IC50,[1],61.7 nM
same,IC50,[2],60.6 nM
same,IC50,[3],59.5 nM
same,IC50,[4],41.9 nM
same,IC50,[5],30.2 nM
same,IC50,[6],2.2 nM
same,"viability, T/C","second compound 0.0316 µM, first compound 0.000316 µM",94%
same,"viability, T/C","second compound 0.0316 µM, first compound 0.001 µM",91.7%
same,"viability, T/C","second compound 0.0316 µM, first compound 0.00316 µM",80.9%
same,"viability, T/C","second compound 0.0316 µM, first compound 0.01 µM",77.8%
same,"viability, T/C",[7],61.1%
same,"viability, T/C",[8],41.4%
same,"viability, T/C","second compound 0.1 µM, first compound 0.000316 µM",102%
same,"viability, T/C","second compound 0.1 µM, first compound 0.001 µM",85.8%
same,"viability, T/C","second compound 0.1 µM, first compound 0.00316 µM",108%
same,"viability, T/C","second compound 0.1 µM, first compound 0.01 µM",73.7%
same,"viability, T/C",[9],76.5%
same,"viability, T/C",[10],33.1%
same,"viability, T/C","second compound 0.316 µM, first compound 0.000316 µM",77.3%
same,"viability, T/C","second compound 0.316 µM, first compound 0.001 µM",89.3%
same,"viability, T/C","second compound 0.316 µM, first compound 0.00316 µM",80.5%
same,"viability, T/C","second compound 0.316 µM, first compound 0.01 µM",82.2%
same,"viability, T/C",[11],71.5%
same,"viability, T/C",[12],32%
same,"viability, T/C","second compound 1 µM, first compound 0.000316 µM",70%
same,"viability, T/C","second compound 1 µM, first compound 0.001 µM",68.1%
same,"viability, T/C","second compound 1 µM, first compound 0.00316 µM",74.5%
same,"viability, T/C","second compound 1 µM, first compound 0.01 µM",79%
same,"viability, T/C",[13],56%
same,"viability, T/C",[14],31.4%
same,"viability, T/C","second compound 3.16 µM, first compound 0.000316 µM",72%
same,"viability, T/C","second compound 3.16 µM, first compound 0.001 µM",73.8%
same,"viability, T/C","second compound 3.16 µM, first compound 0.00316 µM",73.2%
same,"viability, T/C","second compound 3.16 µM, first compound 0.01 µM",57.5%
same,"viability, T/C",[15],52%
same,"viability, T/C",[16],24.3%
same,"viability, T/C","second compound 10 µM, first compound 0.000316 µM",56%
same,"viability, T/C","second compound 10 µM, first compound 0.001 µM",51.5%
same,"viability, T/C","second compound 10 µM, first compound 0.00316 µM",39.8%
same,"viability, T/C","second compound 10 µM, first compound 0.01 µM",52.9%
same,"viability, T/C",[17],34.3%
same,"viability, T/C",[18],21.1%
C#Cc1c(F)ccc2cc(O)cc(-c3ncc4c(N5CC6CCC(C5)N6)nc(OCC56CCCN5CC(F)C6)nc4c3F)c12 (stereo unspecified),"viability, T/C",compound 0.0316 µM,98.5% [middle of 4 runs]
same,"viability, T/C",compound 0.1 µM,103% [middle of 4 runs]
same,"viability, T/C",compound 0.316 µM,101% [middle of 4 runs]
same,"viability, T/C",compound 1 µM,97.3% [middle of 4 runs]
same,"viability, T/C",compound 3.16 µM,86.7% [middle of 4 runs]
same,"viability, T/C",compound 10 µM,63.8% [middle of 4 runs]
same,IC50,curve of compound,> 10000 nM
